Measured values from the supplement of paper PMC10307832.

Assays:
Assay in all cases: relative viability (nuclei count vs DMSO), 5 days (fraction); higher = more cells survive
[1] = compound: CC1=C(C=C(C=C1)NC(=O)C2=CC(=CC=C2)C(C)(C)C#N)NC3=CC4=C(C=C3)N=CN(C4=O)C [AZ628] + CS(=O)(=O)CCNCc1ccc(-c2ccc3ncnc(Nc4ccc(OCc5cccc(F)c5)c(Cl)c4)c3c2)o1 [Lapatinib] (partner 2 µM)
Method in brief: (§1)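 One day after seeding in 1536-well plates, lung cancer cell lines were dosed by pin tool. Dosing was either single-drug or a fixed anchor-drug dose plus five library-drug doses (not always all listed) in √10 steps. After 5 days, nuclei were stained in one fix-and-stain step and counted on 4× images, and relative viability is the nuclei count of treated wells over that of vehicle wells, given as the median of duplicate plates.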

[2] = compound: CC1=C(C=C(C=C1)NC(=O)C2=CC(=CC=C2)C(C)(C)C#N)NC3=CC4=C(C=C3)N=CN(C4=O)C [AZ628] + CC(=O)Nc1cccc(-n2c(=O)n(C3CC3)c(=O)c3c(Nc4ccc(I)cc4F)n(C)c(=O)c(C)c32)c1 [Trametinib] (partner 0.02 µM)
Method in brief: as §1

[3] = compound: CC1=C(C=C(C=C1)NC(=O)C2=CC(=CC=C2)C(C)(C)C#N)NC3=CC4=C(C=C3)N=CN(C4=O)C [AZ628] + Cc1nc(Nc2ncc(C(=O)Nc3c(C)cccc3Cl)s2)cc(N2CCN(CCO)CC2)n1 [Dasatinib] (partner 0.075 µM)
Method in brief: as §1

[4] = compound: C1CC2=C(C1)C=C(C=C2)OC3=NC(=C4C(=N3)N(C=N4)CC5=CC=C(C=C5)C6=CC=CC=C6)N[C@@H](CC7=CC=CC=C7)CO [QS11] + CS(=O)(=O)CCNCc1ccc(-c2ccc3ncnc(Nc4ccc(OCc5cccc(F)c5)c(Cl)c4)c3c2)o1 [Lapatinib] (partner 2 µM)
Method in brief: as §1

NCI-H1755
relative viability ([1]; first compound 0.08 µM): 0.99 | relative viability ([1]; first compound 0.253 µM): 0.951 | relative viability ([1]; first compound 0.8 µM): 0.96 | relative viability ([1]; first compound 2.53 µM): 1.04 | relative viability ([1]; first compound 8 µM): 1.02 | relative viability ([2]; first compound 0.08 µM): 0.63 | relative viability ([2]; first compound 0.253 µM): 0.604 | relative viability ([2]; first compound 0.8 µM): 0.483 | relative viability ([2]; first compound 2.53 µM): 0.561 | relative viability ([2]; first compound 8 µM): 0.305 | relative viability ([3]; first compound 0.08 µM): 0.459 | relative viability ([3]; first compound 0.253 µM): 0.39 | relative viability ([3]; first compound 0.8 µM): 0.417 | relative viability ([3]; first compound 2.53 µM): 0.381 | relative viability ([3]; first compound 8 µM): 0.326 | relative viability ([4]; first compound 0.08 µM): 1.12 | relative viability ([4]; first compound 0.253 µM): 1.02 | relative viability ([4]; first compound 0.8 µM): 0.608 | relative viability ([4]; first compound 2.53 µM): 0.953 | relative viability ([4]; first compound 8 µM): 0.833

NCI-H1792
relative viability ([1]; first compound 0.08 µM): 0.995 | relative viability ([1]; first compound 0.253 µM): 0.891 | relative viability ([1]; first compound 0.8 µM): 0.653 | relative viability ([1]; first compound 2.53 µM): 0.793 | relative viability ([1]; first compound 8 µM): 0.566 | relative viability ([2]; first compound 0.08 µM): 0.333 | relative viability ([2]; first compound 0.253 µM): 0.247 | relative viability ([2]; first compound 0.8 µM): 0.117 | relative viability ([2]; first compound 2.53 µM): 0.195 | relative viability ([2]; first compound 8 µM): 0.052 | relative viability ([3]; first compound 0.08 µM): 0.901 | relative viability ([3]; first compound 0.253 µM): 0.595 | relative viability ([3]; first compound 0.8 µM): 0.513 | relative viability ([3]; first compound 2.53 µM): 0.584 | relative viability ([3]; first compound 8 µM): 0.299 | relative viability ([4]; first compound 0.253 µM): 1.03 | relative viability ([4]; first compound 0.8 µM): 0.633 | relative viability ([4]; first compound 2.53 µM): 0.937 | relative viability ([4]; first compound 8 µM): 0.711

NCI-H1793
relative viability ([1]; first compound 0.08 µM): 0.927 | relative viability ([1]; first compound 0.253 µM): 0.627 | relative viability ([1]; first compound 0.8 µM): 0.573 | relative viability ([1]; first compound 2.53 µM): 0.665 | relative viability ([1]; first compound 8 µM): 0.579 | relative viability ([2]; first compound 0.08 µM): 0.388 | relative viability ([2]; first compound 0.253 µM): 0.332 | relative viability ([2]; first compound 0.8 µM): 0.282 | relative viability ([2]; first compound 2.53 µM): 0.198 | relative viability ([2]; first compound 8 µM): 0.206 | relative viability ([3]; first compound 0.08 µM): 0.422 | relative viability ([3]; first compound 0.253 µM): 0.315 | relative viability ([3]; first compound 0.8 µM): 0.354 | relative viability ([3]; first compound 2.53 µM): 0.344 | relative viability ([3]; first compound 8 µM): 0.388 | relative viability ([4]; first compound 0.08 µM): 0.807 | relative viability ([4]; first compound 0.253 µM): 0.659 | relative viability ([4]; first compound 0.8 µM): 0.802 | relative viability ([4]; first compound 2.53 µM): 0.925 | relative viability ([4]; first compound 8 µM): 1.1

NCI-H1915
relative viability ([1]; first compound 0.08 µM): 1.05 | relative viability ([1]; first compound 0.253 µM): 1 | relative viability ([1]; first compound 0.8 µM): 0.83 | relative viability ([1]; first compound 2.53 µM): 0.653 | relative viability ([1]; first compound 8 µM): 0.704 | relative viability ([2]; first compound 0.08 µM): 0.139 | relative viability ([2]; first compound 0.253 µM): 0.128 | relative viability ([2]; first compound 0.8 µM): 0.109 | relative viability ([2]; first compound 2.53 µM): 0.144 | relative viability ([2]; first compound 8 µM): 0.0954 | relative viability ([3]; first compound 0.08 µM): 0.327 | relative viability ([3]; first compound 0.253 µM): 0.293 | relative viability ([3]; first compound 0.8 µM): 0.249 | relative viability ([3]; first compound 2.53 µM): 0.199 | relative viability ([3]; first compound 8 µM): 0.139 | relative viability ([4]; first compound 0.08 µM): 1.04 | relative viability ([4]; first compound 0.253 µM): 1.02 | relative viability ([4]; first compound 2.53 µM): 1.02 | relative viability ([4]; first compound 8 µM): 0.802

NCI-H1944
relative viability ([1]; first compound 0.08 µM): 0.855 | relative viability ([1]; first compound 0.253 µM): 0.892 | relative viability ([1]; first compound 0.8 µM): 0.831 | relative viability ([1]; first compound 2.53 µM): 0.747 | relative viability ([1]; first compound 8 µM): 0.701 | relative viability ([2]; first compound 0.08 µM): 0.321 | relative viability ([2]; first compound 0.253 µM): 0.305 | relative viability ([2]; first compound 0.8 µM): 0.254 | relative viability ([2]; first compound 2.53 µM): 0.295 | relative viability ([2]; first compound 8 µM): 0.33 | relative viability ([3]; first compound 0.08 µM): 0.209 | relative viability ([3]; first compound 0.253 µM): 0.211 | relative viability ([3]; first compound 0.8 µM): 0.208 | relative viability ([3]; first compound 2.53 µM): 0.192 | relative viability ([3]; first compound 8 µM): 0.197 | relative viability ([4]; first compound 0.08 µM): 0.857 | relative viability ([4]; first compound 0.253 µM): 0.704 | relative viability ([4]; first compound 2.53 µM): 0.89 | relative viability ([4]; first compound 8 µM): 0.598

NCI-H1975
relative viability ([1]; first compound 0.08 µM): 0.866 | relative viability ([1]; first compound 0.253 µM): 0.723 | relative viability ([1]; first compound 0.8 µM): 0.85 | relative viability ([1]; first compound 2.53 µM): 0.921 | relative viability ([1]; first compound 8 µM): 0.513 | relative viability ([2]; first compound 0.08 µM): 0.331 | relative viability ([2]; first compound 0.253 µM): 0.272 | relative viability ([2]; first compound 0.8 µM): 0.228 | relative viability ([2]; first compound 2.53 µM): 0.259 | relative viability ([2]; first compound 8 µM): 0.288 | relative viability ([3]; first compound 0.08 µM): 0.351 | relative viability ([3]; first compound 0.253 µM): 0.292 | relative viability ([3]; first compound 0.8 µM): 0.283 | relative viability ([3]; first compound 2.53 µM): 0.248 | relative viability ([3]; first compound 8 µM): 0.174 | relative viability ([4]; first compound 0.08 µM): 0.912 | relative viability ([4]; first compound 0.253 µM): 0.805 | relative viability ([4]; first compound 0.8 µM): 0.965 | relative viability ([4]; first compound 2.53 µM): 1.03 | relative viability ([4]; first compound 8 µM): 1.18

NCI-H1993
relative viability ([1]; first compound 0.08 µM): 0.883 | relative viability ([1]; first compound 0.253 µM): 0.78 | relative viability ([1]; first compound 0.8 µM): 0.766 | relative viability ([1]; first compound 2.53 µM): 0.834 | relative viability ([1]; first compound 8 µM): 0.838 | relative viability ([2]; first compound 0.08 µM): 0.456 | relative viability ([2]; first compound 0.253 µM): 0.516 | relative viability ([2]; first compound 0.8 µM): 0.479 | relative viability ([2]; first compound 2.53 µM): 0.535 | relative viability ([2]; first compound 8 µM): 0.667 | relative viability ([3]; first compound 0.08 µM): 0.556 | relative viability ([3]; first compound 0.253 µM): 0.546 | relative viability ([3]; first compound 0.8 µM): 0.613 | relative viability ([3]; first compound 2.53 µM): 0.578 | relative viability ([3]; first compound 8 µM): 0.553 | relative viability ([4]; first compound 0.08 µM): 0.823 | relative viability ([4]; first compound 0.253 µM): 0.962 | relative viability ([4]; first compound 0.8 µM): 0.601 | relative viability ([4]; first compound 2.53 µM): 0.751 | relative viability ([4]; first compound 8 µM): 0.882

NCI-H2009
relative viability ([1]; first compound 0.08 µM): 0.548 | relative viability ([1]; first compound 0.253 µM): 0.799 | relative viability ([1]; first compound 0.8 µM): 0.469 | relative viability ([1]; first compound 2.53 µM): 0.715 | relative viability ([1]; first compound 8 µM): 0.294 | relative viability ([2]; first compound 0.08 µM): 0.208 | relative viability ([2]; first compound 0.253 µM): 0.177 | relative viability ([2]; first compound 0.8 µM): 0.198 | relative viability ([2]; first compound 2.53 µM): 0.179 | relative viability ([2]; first compound 8 µM): 0.194 | relative viability ([3]; first compound 0.08 µM): 0.202 | relative viability ([3]; first compound 0.253 µM): 0.258 | relative viability ([3]; first compound 0.8 µM): 0.182 | relative viability ([3]; first compound 2.53 µM): 0.173 | relative viability ([3]; first compound 8 µM): 0.184 | relative viability ([4]; first compound 0.08 µM): 0.983 | relative viability ([4]; first compound 0.253 µM): 0.884 | relative viability ([4]; first compound 0.8 µM): 0.634 | relative viability ([4]; first compound 2.53 µM): 0.855 | relative viability ([4]; first compound 8 µM): 0.728
